Our source for the Ki values is US6620839B2, “1,3-disubstituted and 1,3,3-trisubstituted pyrrolidines as histamine-3 receptor ligands and their therapeutic applications” (Abbott Laboratories, priority 2000, dated 2003).

The test deals with T1, histamine-3 receptor (Rattus norvegicus, UniProt Q9QYN8).
T1 construct: from tissue; host or cells: male Sprague-Dawley rat brain cortex membranes
T1 sequence (Q9QYN8 whole entry): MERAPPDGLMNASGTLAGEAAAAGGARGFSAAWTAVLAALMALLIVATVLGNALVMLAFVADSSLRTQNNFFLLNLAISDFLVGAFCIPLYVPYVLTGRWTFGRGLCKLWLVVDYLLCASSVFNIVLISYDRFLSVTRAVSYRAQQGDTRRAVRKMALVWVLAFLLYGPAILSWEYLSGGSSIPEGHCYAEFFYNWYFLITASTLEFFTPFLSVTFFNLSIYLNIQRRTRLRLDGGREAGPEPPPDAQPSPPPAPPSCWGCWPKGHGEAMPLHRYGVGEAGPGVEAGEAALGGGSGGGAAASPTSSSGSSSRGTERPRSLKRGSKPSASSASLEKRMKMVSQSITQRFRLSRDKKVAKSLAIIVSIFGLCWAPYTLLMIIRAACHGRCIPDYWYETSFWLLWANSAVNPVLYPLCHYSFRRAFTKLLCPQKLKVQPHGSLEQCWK
As to the kind of experiment: Histamine-3 receptor binding, (3H)-N-α-methylhistamine displacement in rat cortical membranes. As to conditions: male Sprague-Dawley rat brain cortical membranes; (3H)-N-α-methylhistamine ~0.6 nM; 30 minutes at 25° C.; Cheng-Prusoff. Summed up: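 Male Sprague-Dawley rat cortical membranes incubated 30 min at 25 °C with compound dilutions and [3H]-N-α-methylhistamine. Nonspecific binding defined with 3 μM thioperamide. Filtration and scintillation counting used; Ki from Hill transformation and Cheng-Prusoff equation.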
Broadly, the Ki is a measure of affinity in units of concentration, obtained from inhibition or displacement. Lower therefore signals tighter binding. In turn, `Cc1cc(-c2ccc(OCCCN3CC[C@@H](N(C)C)C3)cc2)ccc1C#N` [Example 164, 4′-{3-[(3R)-3-(dimethylamino)-1-pyrrolidinyl]propoxy}-3-methyl-1,1′-biphenyl-4-carbonitrile] registered a Ki of 48 nM.
For `Cc1cc(C#N)ccc1-c1ccc(OCCCN2CC[C@@H](N(C)C)C2)cc1` [Example 165, 4′-{3-[(3R)-3-(dimethylamino)-1-pyrrolidinyl]propoxy}-2-methyl-1,1′-biphenyl-4-carbonitrile] the value was 17 nM; for `CN(C)[C@@H]1CCN(CCCOc2ccc(-c3ccc(C#N)c(F)c3)cc2)C1` [Example 166, 4′-{3-[(3R)-3-(dimethylamino)-1-pyrrolidinyl}propoxy]-3-fluoro-1,1′-biphenyl-4-carbonitrile], 73 nM.
Regarding `CN(C)[C@@H]1CCN(CCCOc2ccc(-c3ccc(C#N)cc3)cc2F)C1` [Example 167, 4′-{3-[(3R)-3-(dimethylamino)-1-pyrrolidinyl]propoxy}-3′-fluoro-1,1′-biphenyl-4-carbonitrile], affinity was put at a Ki of 9 nM.
`Cc1cc(-c2ccc(C#N)cc2)ccc1OCCCN1CC[C@@H](N(C)C)C1` [Example 168, 4′-{3-[(3R)-3-(dimethylamino)-1-pyrrolidinyl]propoxy}-3′-methyl-1,1′-biphenyl-4-carbonitrile] had a Ki of 74 nM.
For `CN(C)[C@@H]1CCN(CCCOc2ccc(-c3ccc(C#N)cc3)cc2I)C1` [Example 169, 4′-{3-[(3R)-3-(dimethylamino)-1-pyrrolidinyl]propoxy}-3 ′-iodo-1,1′-biphenyl-4-carbonitrile] the value was 206 nM; for `Cc1cc(OCCCN2CC[C@@H](N(C)C)C2)ccc1-c1ccc(C#N)cc1` [Example 170, 4′-{3-[(3R)-3-(dimethylamino)-1-pyrrolidinyl]propoxy}-2′-methyl-1,1′-biphenyl-4-carbonitrile], 51 nM.
The compound `CN(C)[C@@H]1CCN(CCCOc2ccc(-c3ccc(C#N)cc3)cc2Cl)C1` [Example 171, 3′-chloro-4′-{3-[(3R)-3-(dimethylamino)-1-pyrrolidinyl]propoxy}-1,1′-biphenyl-4-carbonitrile] had a Ki of 41 nM.
For the compound `CN(C)[C@@H]1CCN(CCCOc2c(F)cc(-c3ccc(C#N)cc3)cc2F)C1` [Example 172, 4′-{3-[(3R)-3-(dimethylamino)-1-pyrrolidinyl]propoxy}-3′,5′-difluoro-1,1′-biphenyl-4-carbonitrile], the affinity corresponds to a Ki of 13 nM.
In the case of `COc1cc(-c2ccc(C#N)cc2)ccc1OCCCN1CC[C@@H](N(C)C)C1` [Example 173, 4′-{3-[(3R)-3-(dimethylamino)-1-pyrrolidinyl]propoxy}-3′-methoxy-1,1′-biphenyl-4-carbonitrile], the Ki is 27 nM.
In turn, `CN(C)[C@@H]1CCN(CCCOc2c(F)cc(-c3ccc(C#N)cc3)cc2Cl)C1` [Example 174, 3′-chloro-4′-{3-[(3R)-3-(dimethylamino)-1-pyrrolidinyl]propoxy}-5′-fluoro-1,1′-biphenyl-4-carbonitrile] gave a Ki of 14 nM.
On to “N-((3R)-1-{3-[4-(cyclopropylcarbonyl)phenoxy]propyl}pyrrolidinyl)-4-isopropylbenzenesulfonamide [Example 67]”, for which the Ki is 2.9 nM.
As for “N-{(3R)-1-[3-(4-acetylphenoxy)propyl]pyrrolidinyl}-4-(trifluoromethoxy)benzenesulfonamide [Example 73]”, the Ki turned out to be 6.4 nM.
